Experimental data reported in PubChem BioAssay (NCI).
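Each compound was tested at five concentrations against cells in 96-well plates for 48 hours. At the TGI there is no net growth.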

How the values were obtained:
Experiment in all cases: NCI anticancer screen, dose series, 48 h
T-47D breast = system: T-47D breast
MCF7 breast = system: MCF7 breast
MDA-MB-435 = system: MDA-MB-435
OVCAR-8 ovarian = system: OVCAR-8 ovarian
HOP-92 NSCLC = system: HOP-92 NSCLC
SF-295 CNS = system: SF-295 CNS
MALME-3M melanoma = system: MALME-3M melanoma
SNB-75 CNS = system: SNB-75 CNS
SK-MEL-5 melanoma = system: SK-MEL-5 melanoma
SK-MEL-2 melanoma = system: SK-MEL-2 melanoma
UACC-62 melanoma = system: UACC-62 melanoma
EKVX NSCLC = system: EKVX NSCLC
LOX IMVI melanoma = system: LOX IMVI melanoma

SMILES | TGI (T-47D breast) | TGI (MCF7 breast) | TGI (MDA-MB-435) | TGI (OVCAR-8 ovarian) | TGI (HOP-92 NSCLC) | TGI (SF-295 CNS) | TGI (MALME-3M melanoma) | TGI (SNB-75 CNS) | TGI (SK-MEL-5 melanoma) | TGI (SK-MEL-2 melanoma) | TGI (UACC-62 melanoma) | TGI (EKVX NSCLC) | TGI (LOX IMVI melanoma)
N#CC1N(C(=O)c2ccc(F)cc2)c2ccccc2N1C(=O)c1ccc(F)cc1 | > 100 µM | > 100 µM | > 100 µM | > 100 µM | 68.8 µM | > 100 µM | > 100 µM | > 100 µM | 63.2 µM | > 100 µM | > 100 µM | > 100 µM | > 100 µM
C1OCN2c3nonc3N3COCN4c5nonc5N1C2C43 (stereo not drawn) | > 100 µM | > 100 µM | > 100 µM | > 100 µM | > 100 µM | > 100 µM | > 100 µM | > 100 µM | > 100 µM | > 100 µM | > 100 µM | > 100 µM | 
Cc1ccc(S(=O)(=Nc2ccccc2)C(C(C)C)C(C)(C)Cl)cc1 (stereo not drawn) | > 50 µM | > 50 µM | 38.6 µM | > 50 µM | > 50 µM | > 50 µM | > 50 µM | > 50 µM | 16.7 µM | 43.9 µM | > 50 µM | 47.3 µM | > 50 µM
CCCCCC(/C=C/[C@@H]1CC(=O)C[C@H]1O[Si](C)(C)C(C)(C)C)OCOCCOC (stereo partly drawn) | 44 µM | > 43.5 µM | 4.64 µM | 18.3 µM | 6.03 µM | 25.5 µM | 5.32 µM | 11.5 µM | 9.33 µM | 12.6 µM | 7.64 µM | 23.7 µM | 7 µM
Cc1ccc(O)c(Cc2nc3ccccc3nc2-c2cccc(Br)c2)c1 | > 100 µM | > 100 µM | > 100 µM | > 100 µM | > 100 µM | > 100 µM | > 100 µM | > 100 µM | > 100 µM | > 100 µM | > 100 µM | > 100 µM | > 100 µM
O=C(NN=C1CCCCC1)Nc1ccccc1Cl | > 100 µM | > 100 µM | 47.5 µM | > 100 µM | 94.3 µM | > 100 µM | > 100 µM | 29.6 µM | > 100 µM | 91.7 µM | > 100 µM | > 100 µM | > 100 µM
FC1CCN(C2(c3cccs3)CCCCC2)CC1 | > 100 µM | > 100 µM | > 100 µM | > 100 µM | > 100 µM | > 100 µM | > 100 µM | > 100 µM | > 100 µM | > 100 µM | > 100 µM | > 100 µM | > 100 µM
COc1cc2c3c(cc(Cl)nc3c1OC)C(O)(CC(C)=O)C(=O)N2 (stereo not drawn) | > 100 µM | 35.9 µM | 30.9 µM | 36.2 µM | 34.3 µM | > 100 µM | 29.8 µM | > 55.9 µM | > 56 µM | 45.7 µM | 31.5 µM | 30.9 µM | 34.8 µM
